We go through 3 compounds from patent US20060121040A1, “Compositions and methods for treating neuroendocrine tumors” (Wisconsin Alumni Research Foundation, priority 2004, published 2006).

“Also recorded” adds a separate entry of the source. Like-named read-outs stand apart in the source and are kept apart here.

The subject of series [1] is medullary thyroid cancer TT cells. Briefly: Cellular growth of medullary thyroid cancer cells. In kind it is cell-based, human.
The target in another series is T1, GSK3B (Homo sapiens, UniProt P49841).
T1 construct: treatment of NE tumor cells with ZM336372 (0-50 μM); endogenous in cells; host or cells: BON and TT cells
Briefly: Phosphorylated GSK3B in NE tumor cells (BON and TT) treated with ZM336372 (FIG. 7). In kind it is cell-based. As to conditions: ZM336372 0-50 μM.

A further series has as its system ERK1/2. Briefly: Phosphorylated ERK1/2 in NE tumor cells (BON and TT) treated with ZM336372 (FIG. 7). In kind it is cell-based, human. Conditions: ZM336372 0-50 μM.
The subject of series [2] is Raf-1/MEK/ERK system. Briefly: Western analysis for Raf-1 pathway activation in H727 cells. In kind it is cell-based, human. The procedure: (§1) H727 and BON cells were plated at 50% to 60% confluence in 100-mm cell culture dishes and incubated overnight. Cells were treated with ZM336372 (BioMol, Plymouth Meeting, Pa.) in different concentrations for up to 6 days. Of note, treatments were done in serum-containing medium. Furthermore, the DMSO concentration never exceeded 2% in all treatment groups. ZM336372 at 500 μmol/L concentrations were used only in the toxicity experiments. Stock ZM336372 was made at higher concentration to reduce DMSO toxicity.

The test system of series [3] is Raf-1/MEK/ERK system. Briefly: Western analysis for Raf-1 pathway activation in BON cells. In kind it is cell-based, human. Conditions: increasing doses (20 and 100 μmol/L), 2 d. The procedure: as §1
The subject of series [4] is chromogranin A. Briefly: Western analysis of chromogranin A in H727 cells. In kind it is cell-based, human. The procedure: as §1
(§2) Changes in chromogranin A levels are known to be concordant with alterations in other neuroendocrine hormones such as histamine and serotonin (Sippel & Chen, Surgery 2002;132:1035-9). Additionally, hASH1 is expressed in most neuroendocrine tumors and correlates with neuroendocrine hormone levels as previously described. Therefore, to determine if ZM336372 can reduce chromogranin A and hASH1, pulmonary H727 and gastrointestinal BON carcinoid cells were treated with ZM336372. […] Furthermore, to determine when chromogranin A depletion occurs, H727 cells were treated with ZM336372 at different time intervals.

Series [5] deals with hASH1. Briefly: Western analysis of hASH1 in H727 cells. In kind it is cell-based, human. The procedure: as §1, §2
Series [6] relates to chromogranin A. Briefly: Western analysis of chromogranin A in BON cells. In kind it is cell-based, human. Conditions: 20 and 100 μmol/L, 2 d. The procedure: as §1, §2
Series [7] has as its system hASH1. Briefly: Western analysis of hASH1 in BON cells. In kind it is cell-based, human. As to conditions: 20 and 100 μmol/L, 2 d. The procedure:
as §1, §2

For series [8], the system named is H727 cells. Briefly: Cell proliferation assay (MTT) in H727 cells. In kind it is cell-based, human. As to conditions: 100 μmol/L vs DMSO, up to 16 days, serum-containing medium. The procedure:
(§3) Cells were trypsinized and plated in triplicate to 24-well plates and allowed to adhere overnight. […] Media were changed every 2 days with new treatment. […] Absorbance was determined using spectrophotometer at a wavelength of 540 nm.

Series [9] has as its system BON cells. Briefly: Cell proliferation assay (MTT) in BON cells. In kind it is cell-based, human. Conditions: 100 μmol/L vs DMSO, day 4 to day 10. The procedure: as §3
The next series has as its system p21. Briefly: Western analysis of cell cycle inhibitor p21 in H727 cells. As to conditions: 20 and 100 μmol/L, 2 days. In kind it is cell-based, human.
In series [10] the test system is H727 cells. Briefly: Drug toxicity assay, propidium iodide exclusion, H727 cells. In kind it is cell-based, human. The procedure: Briefly, cells were trypsinized and plated in a 6-well plate at 1 to 2×10^6 in triplicate and allowed to adhere overnight. […] As a control, DMSO was added. After incubation, the medium was removed and cells were trypsinized and added to removed medium. Cells were incubated on ice and 2.5 Ag/mL propidium iodide (Sigma) was added 5 minutes before flow cytometry (17). Data was acquired using a FACSCalibur bench top flow cytometer (Becton Dickinson, San Jose, Calif.) using CellQuest acquisition and analysis software.

In series [11] the test system is BON cells. Briefly: Drug toxicity assay, propidium iodide exclusion, BON cells. In kind it is cell-based, human. Conditions: 63 to 500 μmol/L, 2 days. The procedure: Briefly, cells were trypsinized and plated in a 6-well plate at 1 to 2×10^6 in triplicate and allowed to adhere overnight. Then the media was replaced with fresh media containing various concentrations (31.25, 62.5, 125, 250, and 500 μmol/L) of ZM336372 and incubated for up to 3 days. As a control, DMSO was added. After incubation, the medium was removed and cells were trypsinized and added to removed medium. Cells were incubated on ice and 2.5 Ag/mL propidium iodide (Sigma) was added 5 minutes before flow cytometry (17). Data was acquired using a FACSCalibur bench top flow cytometer (Becton Dickinson, San Jose, Calif.) using CellQuest acquisition and analysis software.

For series [12], the system named is H727 cells. Briefly: Cytotoxicity assay (Cell Titer Glo), H727 cells. In kind it is cell-based, human. As to conditions: ZM336372 tested 0 to 200 μmol/L. The procedure: (§4) Cells (H727 and BON) were harvested by trypsinization and plated at a cell density of 3,000 cells per well of each microtiter plate. Cells were grown for 4 hours at 37° C. to allow cell attachment to occur before compound addition. Doxorubicin (control) and ZM336372 were dissolved in DMSO. […] Treatments were done in duplicate. Cells were incubated with the test compounds for 72 hours before reading the assay. Then processing and calculation were done according to manufacturer's directions for Cell Titer Glo Assay (Promega, Madison, Wis.).

The subject of series [13] is BON cells. Briefly: Cytotoxicity assay (Cell Titer Glo), BON cells. As to conditions: 72 hours, ZM336372 tested 0 to 200 μmol/L. In kind it is cell-based, human. The procedure: as §4
The next series has as its system p18. Briefly: Western analysis of cell cycle inhibitor p18 in H727 cells. As to conditions: 20 and 100 μmol/L, 2 days.
Another series has as its system chromogranin A (CgA). Briefly: NE marker chromogranin A in medullary thyroid cancer TT cells. As to conditions: SB216763 0-50 μM. In kind it is cell-based, human.
For series [14], the system named is human achaete-scute homolog-1 (hASH1). Briefly: NE marker hASH1 in medullary thyroid cancer TT cells. In kind it is cell-based. As to conditions: SB216763 0-50 μM.

T1 sequence (P49841 whole entry): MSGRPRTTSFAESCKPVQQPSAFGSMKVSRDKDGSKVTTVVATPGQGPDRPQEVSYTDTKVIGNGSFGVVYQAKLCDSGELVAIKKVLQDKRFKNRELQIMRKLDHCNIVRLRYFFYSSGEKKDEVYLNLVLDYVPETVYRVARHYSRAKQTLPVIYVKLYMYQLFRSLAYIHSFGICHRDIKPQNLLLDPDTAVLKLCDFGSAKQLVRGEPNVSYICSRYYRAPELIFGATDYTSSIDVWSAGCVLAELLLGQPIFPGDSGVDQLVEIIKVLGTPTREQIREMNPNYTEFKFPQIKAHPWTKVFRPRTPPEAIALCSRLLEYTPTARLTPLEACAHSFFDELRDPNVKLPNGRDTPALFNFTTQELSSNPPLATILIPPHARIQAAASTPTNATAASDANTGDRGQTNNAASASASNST
Experimental for p18: (§5) Cellular extracts were prepared and quantified by bicinchoninic acid protein assay kit (Pierce, Rockford, Ill.) as previously described (Sippel & Chen, Surgery 2002;132:1035-9). Denatured proteins (30-50 μg) from each sample underwent electrophoresis on a SDS polyacrylamide gel and transferred to a nitrocellulose membranes (Schleicher and Schuell, Keene, N.H.). Membranes were blocked for 1 hour in milk solution (1×PBS, 5% nonfat dry milk, 0.05% Tween 20) and incubated at 4° C. overnight with primary antibodies. The following primary antibody dilutions were used: phospho-ERK1/2 (1:1,000), phospho-MEK (1:1,000), phospho-Raf-1 (Ser338; 1:1,000), p21 and p18, (1:1,000) (Cell Signaling Technology, Beverly, Mass.), Chromogranin A (1:2,000; Zymed Laboratories, San Francisco, Calif.), MASH-1 (1:1000, BD Pharmingen, San Diego, Calif.), and G3PDH (1:10,000; Trevigen, Gaithersburg, Md.). After primary antibody incubation, membranes were washed 3×5 minutes in PBS-T wash buffer (1×PBS and 0.05% Tween 20). Then the membranes were incubated with either 1:2,000 dilution of goat anti-rabbit or goat anti-mouse secondary antibody (Cell Signaling Technology) depending on the source of the primary antibody for 1 hour at room temperature. […]
Experimental for p21: as §5

With `Cc1ccc(NC(=O)c2cccc(N(C)C)c2)cc1NC(=O)c1ccc(O)cc1` [ZM336372], in series [1] (ZM336372, medullary thyroid cancer cells, data not shown), the “growth of other neuroendocrine tumor cell lines” value was “inhibited growth”. Moreover, the “levels of phosphorylated GSK3B” value on GSK3B is listed as “increased levels”. In addition, the “levels of phosphorylated ERK1/2” value in the series with ERK1/2 was “increased levels”. Also, in the series with Raf-1/MEK/ERK system [2] (100 μmol/L), the “MEK1/2 phosphorylation at days 4 and 6” value was “sustained; also recorded: greater than controls out to 6 d”. Also, the “Raf-1 phosphorylation at Ser338” value in the series on Raf-1/MEK/ERK system [2] (20 and 100 μmol/L, 2 days) is given as “phosphorylated; also recorded: dose-dependent increases”. The “MEK1/2 and ERK1/2 phosphorylation” value in the series with Raf-1/MEK/ERK system [2] (20 and 100 μmol/L, 2 days, vs DMSO) is “activation; also recorded: dose-dependent increases”. Also, the “ERK1/2 and MEK1/2 phosphorylation” value in the series on Raf-1/MEK/ERK system [3] is on record as “strong activation; also recorded: dose-dependent increases”. The “time of greatest comparative loss of chromogranin A” value in the series on chromogranin A [4] (100 μmol/L) is 48 h. Further, the “lasting effect on chromogranin A (days 2, 4 and 6)” value in the series with chromogranin A [4] (100 μmol/L vs DMSO) is “maintained to 6 days; also recorded: persistent reduction”. Further, in the series on chromogranin A [4] (100 μmol/L, 10 min, 1, 12, 24, 48 h), the “earliest detection of reduction of chromogranin A” value is 1 h. Moreover, the “chromogranin A level” value is “reduction; also recorded: dose-dependent decrease” in the series with chromogranin A [4] (20 and 100 μmol/L, 2 d); “reduction; also recorded: dose-dependent decrease” in the series on chromogranin A [6]. The “first recognized reduction in hASH1” value in the series on hASH1 [5] (100 μmol/L) came out at 1 h. The hASH1 level result in the series on hASH1 [5] (20 and 100 μmol/L, 2 d) is given as “reduction; also recorded: dose-dependent decrease”; in the series with hASH1 [7], “reduction; also recorded: dose-dependent decrease”. For the same compound, the cell proliferation entry in the series with H727 cells [8] is recorded as “growth suppressed; also recorded: inhibited”; in the series on BON cells [9], “growth suppression; also recorded: inhibited”. Besides, the p21 expression entry in the series with p21 is given as “induced; also recorded: significant induction”. Further, the cytolysis in the series with H727 cells [10] (20-100 μmol/L) was less than 20%. Also, the viability result in the series on H727 cells [10] (H727, 20 to 100 μmol/L vs DMSO, 2 d) was “significant viability was maintained”. In the series on BON cells [11], this compound yielded a cells remaining viable of approximately 70%. Besides, the IC50 entry in the series with H727 cells [12] (72 hours) and in the series with BON cells [13] was “did not produce enough cellular cytotoxicity to estimate an IC50” in each case. Further, in the series with p18, the p18 expression entry is “induced; also recorded: significant induction”.

Turning to `COc1cccc2c1C(=O)c1c(O)c3c(c(O)c1C2=O)C[C@@](O)(C(=O)CO)C[C@@H]3O[C@H]1C[C@H](N)[C@H](O)[C@H](C)O1` [doxorubicin], the 50% inhibitory concentration (IC50) in the series on H727 cells [12] (Homo sapiens, NCI-H727, 72 hours, read-out: IC50) was 1.1 µM; in the series on BON cells [13] (Homo sapiens, read-out: IC50), 1.4 µM.

For `Cn1cc(C2=C(c3ccc(Cl)cc3Cl)C(=O)NC2=O)c2ccccc21` [SB216763], the “chromogranin A production” value in the series with chromogranin A (CgA) was “suppression; also recorded: reduction”. Moreover, the hASH1 entry in [14] is on record as “suppression; also recorded: reduction”. The TT cell growth entry in series [1] (SB216763 0-50 μM) is recorded as “suppression”.
